US5792457A, “Antibody recognizing endothelial cell ligand for leukocyte CR3” (priority 1995, dated 1998)
Entries after “also recorded” stand apart in the source; their conditions may differ.

Columns and labels:
[1] = test system: leukocyte migration into the CSF, pneumococcal meningitis; experiment: Rabbit model for meningitis: leukocyte migration into CSF; format: in vivo, New Zealand white rabbits; conditions: for leukocyte migration into the CSF (in words): 0.1 μM (10^-1 μM) i.v.; for mean leukocyte density, cells/μl CSF: 1 ml of 1 μM peptide i.v.; for mean leukocyte density, cells/μl CSF / mean leukocyte concentration/μl CSF: 7 hours after challenge; for reduction of CSF leukocytosis: intravenous injection; for leukocyte migration into CSF (in words): 10^-3 μM
Text: FIG. 20A and B, is a graphical representation of the anti-inflammatory activity of FHA, and FHA- and factor X-derived peptides in experimental bacterial meningitis. FIG. 20 A: FHA .largecircle.; Control .quadrature.. FIG. 20B: FHA peptide Ia .largecircle.; FHA peptide II .box-solid.; Factor X peptide II .tangle-solidup.; scrambled FHA peptide II .circle-solid..
FIG. 21 is a graphical representation of the effect of concentration of peptide on inhibition of leukocyte migration into the CSF. FHA peptide Ia .largecircle., FHA peptide II .box-solid.; Factor X peptide II .tangle-solidup.(n≥4 per group). Two animals received intravenous injections of 10^-1 μM, 2×10^-2 μM or 2×10^-3 μM FHA (.circle-solid.). Values are means±standarddeviations of leukocyte densities at 7 hours after bacterial challenge. The horizontal lines indicate the mean and standard deviation of CSF leukocyte density in 10 control animals which received phosphate buffered saline.
FIG. 22 is a scattergram representation of the effect of variation of the FHA peptide II structure on efficacy of inhibition,of meningeal inflammation. Values are leukocyte densities at 7 hours for individual rabbits. The horizontal lines indicate the mean and standard deviation of CSF leukocyte density in 10 control animals which received phosphate buffered saline.
FIG. 23 is a scattergram representation of the ability of acetyl/amide FHA peptide II to inhibit accumulation of leukocytes in the CSF. Two groups of 10 animals were challenged with pneumococci. One hour later, the animals received an intravenous injection of 10 nmoles of the acetyl/amide peptide (8.2 μg) or phosphate buffered saline. Leukocyte density in CSF was determined 6 hours after pneumococcal challenge.
FIG. 28 is a graphical representation of the effect of FHA peptides on pneumococci induced leukocyte migration into the CSF during pneumococcal meningitis. Data represent mean±standard deviation of leukocyte concentration/μl CSF of at least 4 animals per group. Time is hours after pneumococcal challenge. FHA peptide Ca (.quadrature.); FHA peptide Cb (.largecircle.); FHA peptide Cd (.tangle-solidup.); Control (.diamond-solid.);
FIG. 29 is a graphical representation of a comparison of anti-inflammatory activity of FHA and FHA peptides in experimental meningitis. FHA peptide Ca (.quadrature.); FHA peptide Cb (.largecircle.), ≥ four animals/group; FHA (.tangle-solidup.), two animals/group. Values are means ±standard deviations of leukocyte concentrations/μl CSF at 7 hours after bacterial challenge. The horizontal lines indicate the mean±standard deviation of leukocyte concentrations in 10 control animals which received phosphate buffered saline.
The rabbit model was performed according to an established protocol. Specific pathogen free, New Zealand white rabbits (2 kg; Hare Marland, Nutley, N.J.) were anesthetized with valium (2.5 mg/kg, subcutaneously, Hoffman-LaRoche, Nutley, N.J.), ketamine (35 mg/kg, intra-muscularly, Aveco, Fort Dodge, Iowa) and xylazine (5 mg/kg, intramuscularly, Miles Laboratories, Shawnee, Kans.) and a helmet of dental acrylic was affixed to the calvarium. Twenty four hours later, the rabbits were anesthetized with ethyl carbamate (1.75 g/kg; Aldrich Chemical Co., Milwaukee, Wis.) and pentobarbital (15 mg/kg; Abbott Laboratories, Abbott Park, Ill.) and placed in a stereotaxic frame. A spinal needle was introduced into the cisterna magna and 300 μl of CSF was withdrawn. The animals were challenged intracisternally with 10^8 heat killed, unencapsulated pneumococcus strain R6 introduced in 200 μl of saline (time 0). One hour later, animals were treated with peptides dissolved in 1 ml of saline by intravenous injection into the right marginal ear vein. The concentration of FHA was 0.1 μM and that of the FHA Ia, Factor X II, and scrambled FHA II peptides was 10 μM. For the acetyl-FHA II, acetyl/amide-FHA II, dimer of FHA II and trimer of FHA II peptides, the concentration was 10^-3 μM. […]

[2] = test system: lactate metabolism during meningeal inflammation; experiment: Rabbit model for meningitis: lactate in CSF; format: in vivo, New Zealand white rabbits; conditions: 6 hours after challenge
Method: The rabbit model was performed according to an established protocol. Specific pathogen free, New Zealand white rabbits (2 kg; Hare Marland, Nutley, N.J.) were anesthetized with valium (2.5 mg/kg, subcutaneously, Hoffman-LaRoche, Nutley, N.J.), ketamine (35 mg/kg, intra-muscularly, Aveco, Fort Dodge, Iowa) and xylazine (5 mg/kg, intramuscularly, Miles Laboratories, Shawnee, Kans.) and a helmet of dental acrylic was affixed to the calvarium. Twenty four hours later, the rabbits were anesthetized with ethyl carbamate (1.75 g/kg; Aldrich Chemical Co., Milwaukee, Wis.) and pentobarbital (15 mg/kg; Abbott Laboratories, Abbott Park, Ill.) and placed in a stereotaxic frame. A spinal needle was introduced into the cisterna magna and 300 μl of CSF was withdrawn. The animals were challenged intracisternally with 10^8 heat killed, unencapsulated pneumococcus strain R6 introduced in 200 μl of saline (time 0). One hour later, animals were treated with peptides dissolved in 1 ml of saline by intravenous injection into the right marginal ear vein. The concentration of FHA was 0.1 μM and that of the FHA Ia, Factor X II, and scrambled FHA II peptides was 10 μM. For the acetyl-FHA II, acetyl/amide-FHA II, dimer of FHA II and trimer of FHA II peptides, the concentration was 10^-3 μM. The concentration of FHA II is given in the results section. Samples of CSF were withdrawn at hourly intervals after pneumococcal inoculation and leukocyte density was measured using a cell counter (Coulter Electronics Inc., Hialeah, Fla.). CSF samples were centrifuged at 10,000×g for 5 minutes and the supernatant was stored at -70° C. until assayed for protein concentration using the bicinchoninic acid method (ECA Kit, Pierce Chemical Co., Rockford, Ill.) and for lactate concentration (Lactate Detection Kit, Sigma, St. Louis, Mo.). Statistically significant differences between treatments were determined by a one way analysis of variance test.
Loss of barrier function of the cerebral capillary endothelium during inflammation is reflected by an influx of serum proteins into the CSF. […] To examine if the peptides were able to ameliorate these measures of cerebral injury, CSF protein and lactate concentrations were measured hourly in peptide-treated and control animals (Table 10).
Mean values for CSF lactate and protein at time 0 were 18.6±5.8 and 0.8±0.2 respectively. Ten control animals received phosphate-buffered saline. The concentration of FHA II intravenously injected one hour after challenge with pneumococci was 10 μM. Values represent mean±standarddeviation of concentrations in CSF at 6 hours after pneumococcal challenge (n≥4 for peptide treated animals; n=4 for FHA). *Statistically significant difference as compared to control at p<0.02 (Mann-Whitney test).
Again, mean values for CSF lactate and protein at time 0 were 18.6±5.8 and 0.8±0.2, respectively. Ten control animals received phosphate-buffered saline. The concentrations of FHA II intravenously injected was 10^-3 μM. Values represent mean±standard deviation of concentrations in CSF at 6 hours after pneumococcal administration (n≥4 per group).

| Substance | Lactate in CSF ([2]; peptides 10 μM, FHA 0.1 μM) | mean leukocyte concentration/μl CSF ([1]; peptides 10 μM i.v.) | reduction of CSF leukocytosis [1] | further results |
| --- | --- | --- | --- | --- |
| GTLLLRNDALTENGTVTISA [FHA Cd] |  |  |  | leukocyte recruitment into the CSF (in words) ([1]; 1 μM peptide): no effect on the leukocyte recruitment into the CSF |
| RADPHQGVLAQGDIIMDAKG [FHA Cb] |  |  |  | leukocyte migration into the CSF (in words) [1]: ineffective at this dose; mean leukocyte density, cells/μl CSF [1]: 2788±1022 cells/μl CSF |
| DEETVK [scrambled FHA II, reference compound] | 40.7 ± 5.8 mg/100 ml | 6431±1380 /μl CSF |  | CSF leukocytosis (in words) ([1]; peptides 10 μM): ineffective |
| RGDPHQGVLAQGDIIMDAKG [FHA Ca] |  |  |  | leukocyte migration into the CSF (in words) [1]: still significantly reduced leukocyte migration into the CSF; mean leukocyte density, cells/μl CSF [1]: 2137±1498 cells/μl CSF |
| LGYQAK (UniProt P12255 1979-1984, looked up, fragment) [FHA Ia] | 36.0 ± 6.7 mg/100 ml | 1640±1210 /μl CSF | > 60% |  |
| GYDTKQEDG [Factor X II] | 37.6 ± 6.9 mg/100 ml | 1622±521 /μl CSF | > 60% |  |
| ETKEVDG [FHA II] | 25.5 ± 4.1 mg/100 ml | 2645 ±1412 /μl CSF | > 60% | Lactate in CSF ([2]; 10^-3 μM): 35.3 ± 6.7 mg/100 ml; leukocyte migration into the CSF (in words) ([1]; listed as FHA peptide II): statistically significantly different from control at p<0.02; also recorded: more potent anti-inflammatory activity than the corresponding Factor X peptide II; leukocyte migration into CSF (in words) [1]: ineffective |
| native FHA: Filamentous hemagglutinin, 220kD surface associated protein of Bordetella pertussis (List Biologicals) | 25.0 ± 5.3 mg/100 ml |  | > 60% | leukocyte migration into the CSF (in words) ([1]; listed as FHA): statistically significantly different from control at p<0.05; also recorded: more potent anti-inflammatory activity than the corresponding Factor X peptide II; leukocyte migration into CSF (in words) [1]: ineffective; mean leukocyte concentration/μl CSF ([1]; FHA 25 μg, 0.1 μM i.v.): 2096±450 /μl CSF |
| Ac-ETKEVDG-NH2 [Acetyl/Amide-FHA II] | 24.3 ± 3.2 mg/100 ml |  |  | leukocyte migration into the CSF ([1]; 10 nmoles i.v., 6 hours post-pneumococcal challenge, n=10): 3011±684 cells/μl |
